According to ChEMBL document CHEMBL1154254, “Antiproliferative triterpenoid saponins of Dodonaea viscosa from the Madagascar dry forest” (J Nat Prod, 2009):
pIC50: −log10 of the molar value.

Tests used:
Type in all cases: functional, cell-based
DU-145 = test: Antiproliferative activity against human DU145 cells
NCI-H460 = test: Antiproliferative activity against human NCI-H460 cells
HCC 2998 = test: Antiproliferative activity against human HCC2998 cells
A2780 = test: Antiproliferative activity against human A2780 cells after 2 days by alamar blue assay; details: A2780, 48 h
BT-549 = test: Antiproliferative activity against human BT549 cells

Row | Compound | pIC50 (DU-145) | pIC50 (NCI-H460) | pIC50 (HCC 2998) | pIC50 (A2780) | pIC50 (BT-549)
1 | C/C=C(/C)C(=O)O[C@H]1[C@H](OC(=O)/C(C)=C\C)[C@]2(CO)[C@H](O)[C@H](O)[C@]3(C)C(=CC[C@@H]4[C@@]5(C)CC[C@H](O[C@@H]6O[C@H](C(=O)O)[C@@H](O)[C@H](O[C@@H]7O[C@@H](CO)[C@H](O)[C@H]7O)[C@H]6O[C@@H]6O[C@H](CO)[C@@H](O)[C@H](O)[C@H]6O)C(C)(C)[C@@H]5CC[C@]43C)[C@@H]2CC1(C)C [DODONAEASIDE A] | < 5.30 | < 5.30 | < 5.30 | 6.10 | < 5.30
2 | C/C=C(/C)C(=O)O[C@H]1[C@H](OC(=O)[C@]2(C)O[C@@H]2C)C(C)(C)C[C@H]2C3=CC[C@@H]4[C@@]5(C)CC[C@H](O[C@@H]6O[C@H](C(=O)O)[C@@H](O)[C@H](O[C@@H]7O[C@@H](CO)[C@H](O)[C@H]7O)[C@H]6O[C@@H]6O[C@H](CO)[C@@H](O)[C@H](O)[C@H]6O)C(C)(C)[C@@H]5CC[C@@]4(C)[C@]3(C)C[C@@H](O)[C@]21CO [DODONAEASIDE B] | – | – | – | 6.15 | –
